Results: patent publication US9427426B2 (priority 2008, dated 2016)
Like-named read-outs stand apart in the source and are kept apart here.

Columns and labels:
[1] = cited from earlier work; for solubility in water, in words: water (NAC: at 20° C.)
[2] = test system: rat; settings: cited from earlier work
[3] = test system: rats intoxicated with lead (lead acetate); assay: Example 2: erdosteine i.v. vs NAC i.v. in rats intoxicated with lead; format: in vivo, Wistar rats
Experimental: (§1) The animals have been randomly divided in 11 lots.
(§2) 3. […] NAC has been dissolved in bidistilled water.
(§3) 4. […] Erdosteine has been solubilized in bidistilled water and sodium hydrogen carbonate equimolar, the resulting solution being administered in volume of 10 ml/kg. Preliminarily we tested the different molar ratios erdosteine/sodium hydrogen carbonate in a range between 0.5:1 and 1.5:1 and the volume to be solubilized. […] Animals Monitoring:
(§4) Mortality has been recorded. […] Few animals have been collected urine eliminated spontaneously for Pb—Hg analysis. Animals have been sacrificed under general anesthesia with ether. 6 animals of each group (3 males and 3 females) have been randomly selected for macroscopic and microscopic anatomic-pathological examination.

[4] = test system: rats intoxicated with mercury (mercury chloride); assay: Example 2: erdosteine i.v. vs NAC i.v. in rats intoxicated with mercury; format: in vivo, Wistar rats
Experimental: as §1, §2, §3, §4

[5] = test system: rats intoxicated with paracetamol; assay: Example 4: erdosteine i.v. vs NAC i.v. in rats intoxicated with paracetamol; format: in vivo, Wistar rats
From the text: Experiment has been carried on in parallel with experiment of example 3 and results of animals not intoxicated not treated (lot1) have been used as reference.
as §2
Animals have been monitored as described in example 3.
Mortality has been recorded.

[6] = test system: rats intoxicated with lead (lead acetate); assay: Example 1: erdosteine per os vs NAC per os in rats intoxicated with lead; format: in vivo, Wistar rats; settings: erdosteine 875 mg/kg or NAC 500 mg/kg per os once a day for 7 days
Experimental: (§5) 3. […] NAC has been mixed with bidistilled water, the resulting solution being administered in volume of 10 ml/kg.
(§6) 4. […] Erdosteine has been mixed with bidistilled water and sodium hydrogen carbonate equimolar, the resulting solution being administered in volume of 10 ml/kg.
as §4

[7] = test system: rats intoxicated with mercury (mercury chloride); assay: Example 1: erdosteine per os vs NAC per os in rats intoxicated with mercury; format: in vivo, Wistar rats; settings: erdosteine 875 mg/kg or NAC 500 mg/kg per os once a day for 7 days
Experimental: as §5, §6, §4

[8] = Pb intoxicated (lead acetate 4665 mg/kg per os), ERDO1 = erdosteine 350 mg/kg i.v. or NAC 114 mg/kg i.v. once a day for 7 days, 35 animals/lot
[9] = Pb intoxicated, ERDO1 = erdosteine 350 mg/kg i.v. or NAC 114 mg/kg i.v. once a day for 7 days
[10] = survivors after 7 days, Pb intoxicated, ERDO1 = erdosteine 350 mg/kg i.v. or NAC 114 mg/kg i.v. once a day
[11] = Hg intoxicated (mercury chloride 42 mg/kg per os), ERDO1 = erdosteine 350 mg/kg i.v. or NAC 114 mg/kg i.v. once a day for 7 days, 35 animals/lot
[12] = Hg intoxicated, ERDO1 = erdosteine 350 mg/kg i.v. or NAC 114 mg/kg i.v. once a day for 7 days
[13] = survivors after 7 days, Hg intoxicated, ERDO1 = erdosteine 350 mg/kg i.v. or NAC 114 mg/kg i.v. once a day
[14] = paracetamol […] per os, erdosteine 350 mg/kg i.v. or NAC 114 mg/kg i.v. once a day for 7 days, 30 animals/lot
[15] = paracetamol intoxicated, erdosteine 350 mg/kg i.v. or NAC 114 mg/kg i.v., 7 days
[16] = survivors at 7 days, paracetamol intoxicated, erdosteine 350 mg/kg i.v. or NAC 114 mg/kg i.v.
[17] = Pb intoxicated (lead acetate 4665 mg/kg per os), 30 animals/lot
[18] = survivors after 7 days, Pb intoxicated
[19] = Hg intoxicated (mercury chloride 42 mg/kg per os), 30 animals/lot
[20] = survivors after 7 days, Hg intoxicated

## OCC(S)CS (centres unmarked) [Dimercaprol, 2,3,Dimercapto1-propanol]
[1]
  solubility in water, in words: hardly soluble
[2]; rat, i.v.
  LD50 i.v.: 105 mg/kg

## CC(=O)N[C@@H](CS)C(=O)O [NAC, N-Acetylcysteine]
[3]; [8]
  Mortalitaty total: 28 ^3
  Mortality in percent: 80%
[3]; [9]
  Anatomical pathology: lesions: did not improve lesions
  Pb in urine, Pb mean values: 12.9 mg/L
[3]; [10]
  Creatinine mean values: 0.78 ^4 mK/dl
  Haematocrit mean values: 35.48 ^3
  Haemoglobin mean values: 15.86 ^3 g/dl
  Leucocytes mean values: 16.36 ^3
  Urea mean values: 80.98 ^4 mg/dl
  Uric acid mean value: 2.13 ^4 mg/dl
  erythrocytes mean values: 6.93 ^3 *10^6/mm^3
[4]; [11]
  Mortalitaty total: 30 ^3
  Mortality in percent: 85.7%
[4]; [12]
  Anatomical pathology: lesions: least severe damages
  Hg in urine mean values: 13.9 mg/L
[4]; [13]
  Creatinine mean values: 1.06 ^4 mK/dl
  Haematocrit mean values: 38.97 ^3
  Haemoglobin mean values: 14.57 ^3 g/dl
  Leucocytes mean values: 10.5 ^3
  Urea mean values: 79.52 ^4 mg/dl
  Uric acid mean value: 2.02 ^4 mg/dl
  erythrocytes mean values: 6.76 ^3 *10^6/mm^3
[1]
  solubility in water, in words: slightly soluble
[5]; [14]
  Mortality percentual: 20%
  Total mortality: 6/30
[5]; paracetamol intoxicated, erdosteine 350 mg/kg i.v. or NAC 114 mg/kg i.v.
  Renal aggression (urine summary), in words: antagonized
[5]; [15]
  Urine summary: Bil.: 3 mg/dL
  Urine summary: Chet: neg
  Urine summary: Density: 1015
  Urine summary: Erythrocyte: 25 µL⁻¹
  Urine summary: Glucose: neg
  Urine summary: Leuc: 25 µL⁻¹
  Urine summary: Prot.: 75 mg/dL
  Urine summary: UBG: 1 mg/dL
  Urine summary: pH: 6.8
[5]; [16]
  ALT: 206.6^1
  AST: 42.6^2
  HCT: 41.7^1
  PLT: 550.8^1
  RBC: 7.20^1
  Urea: 74.76^1
  Uric acid: 2.574^1
[6]; [17]
  Mortality in percent: 30%
  Mortality total: 9
[6]; Pb intoxicated
  Anatomical pathology: lesions (macroscopic and microscopic examination): did not improve lesions
[6]; Pb intoxicated, GS MS Varian 4100
  Pb in urine, Pb mean values: 13.2 mg/L
[6]; [18]
  Creatinine mean values: 0.66 ^3 mK/dl
  Haematocrit mean values: 41.42^3
  Haemoglobin mean values: 13.58^3 g/dl
  Leucocytes mean values: 6.82^3
  Urea mean values: 104.15 ^3 mg/dl
  Uric acid mean value: 2.36 ^1 mg/dl
  erythrocytes mean values: 6.55^3 *10^6/mm^3
[7]; [19]
  Mortality in percent: 33.3%
  Mortality total: 10^2^
[7]; Hg intoxicated
  Anatomical pathology: lesions (macroscopic and microscopic examination): less important lesions
[7]; Hg intoxicated, GS MS Varian 4100
  Hg in urine mean values: 11.5 mg/L
[7]; [20]
  Creatinine mean values: 0.56 ^3 mK/dl
  Haematocrit mean values: 41.50^3
  Haemoglobin mean values: 13.58^3 g/dl
  Leucocytes mean values: 6.72^3
  Urea mean values: 85.45 ^3 mg/dl
  Uric acid mean value: 2.38 ^1 mg/dl
  erythrocytes mean values: 6.92^3 *10^6/mm^3
[2]; rat, in vivo, iv
  LD50 i.v.: 1140 mg/kg
[2]; rat, in vivo
  LD50 per os: 5050 mg/kg

## [Cl][Hg][Cl] [mercury chloride]
[1]; water at 20° C.
  solubility in water: 7.4 g/100 ml
[2]; per os, rat where given
  LD50 per os: 42 mg/kg

## Lead acetate trihydrate
[2]; per os, rat where given
  LD50 per os: 4665 mg/kg
